This is an account of results in patent publication US20200032249A1, “LABELING, ISOLATION, & ANALYSIS OF RNA FROM RARE CELL POPULATIONS” (priority 2017, published 2020).

Molecules are shown by their SMILES.

The test system of one data set is 293T cells. Kind of data set: anti-BrdU immunofluorescent staining of 293T cells treated with 5-FC or 5-FU. The class given is cell-based, human. The settings on record: untransfected control 293T cells, 250 μM, 24 h. As for the experimental part: S. cerevisiae CD was exogenously expressed in human embryonic kidney 293T cells, and the cells were treated with 250 μM fluorocytosine (5-FC). This system is predicted to generate intracellular fluorouracil (5-FU), which is then incorporated into newly synthesized RNAs (FIG. 1a, b). Antibodies against bromodeoxyuridine (BrdU) can recognize BrdU and other halogenated uridines incorporated into nucleic acids (8).
Human embryonic kidney transformed with […] (293T) and human breast cancer MDA-MB-231 (MDA231) cells were cultured in DMEM High Glucose medium (Wheaton) supplemented with 10% Fetal Bovine Serum (Clontech, Catalog number 631106) supplemented with 2 mM L-Glutamine. All cell lines have been routinely tested for mycoplasma contamination. For the induction of CD or CD and UPRT, cells were treated with 1 μg/ml doxycycline for 24 h. For Fluorouracil tagging, cells were treated with 250 μM of 5-FC or 5-FU unless indicated. Where indicated, 125 μM thymine was added together with 5-FC. For the formation of stress granules, cells were treated with 500 μM Sodium Arsenite (Santa Cruz Biotechnologies, Catalog number SC-301816).
Cells were fixed with 4% paraformaldehyde for 10 min, permeabilized with 0.2% TritonX-100 for 10 min, blocked with 5% BSA for one hour at room temperature, prior to incubation with primary antibodies at 4° C. overnight, and secondary antibodies (Thermo Fisher anti-chicken antibody, Catalog number A-11039, Thermo Fisher anti-rat antibody, Catalog number A-11006, Abcam anti-rat antibody, Catalog number ab150117) incubated for 1 h at room temperature. Mouse lungs were fixed in 4% paraformaldehyde overnight at 4° C., embedded in paraffin and sectioned. The lung sections were deparaffinized and stained with hematolxylin/eosin or immunostained using standard protocols. Automated image analysis was performed using the FIJI software package.

A further data set deals with MDA231 cells. Kind of data set: stress granule formation by G3BP immunostaining. The class given is cell-based. The following applies: 500 μM sodium arsenite, positive control. The protocol: FIG. 2a-b. Flura-tagging has minimal cytotoxicity. FIG. 2a—Effect of Flura-tagging on stress granule formation. MDA231 cells were treated with 5-FC for the indicated times, and the formation of stress granules was detected by G3BP immunostaining. Control cells were either treated with water or sodium arsenite (Arsenite) for one hour. Arrows indicate stress granules (n=3). Scale bar=20 μM. FIG. 2b—Effect of Flura-tagging on transcription. RNA expression in control cells was compared to CD/UPRT-expressing cells treated with the indicated concentrations of 5-FC for 4 h or 12 h. Each dot represents a gene, with the outer/lighter gray dots indicating genes showing more than 2-fold differential expression, as determined by DESeq2 (n=2). The dotted line represents the four-fold cutoff mark.
5-FU is extensively used as a chemotherapeutic agent for the treatment of solid tumors, based on its ability to induce cancer cell death by inhibiting thymidylate synthase and by causing DNA and RNA damage (12-14). It was therefore crucial to test whether our 5-FU-tagging method, which is based on low concentrations of 5-FC and short incubation time periods, has significant cytotoxic effects under our experimental conditions. CD/UPRT-expressing cells were treated with 5-FC at concentrations of up to 250 μM for up to 12 h (“Flura-tagged” cells), and the effects of this treatment on RNA damage response and transcriptional regulation were investigated.
A key feature of the RNA damage response is the formation of stress granules (15). Ras GTPase-activating protein-binding protein 1 (G3BP), a key component of stress granules, forms distinct foci during stress granule formation (12). We determined the dose- and time-dependent effect of 5-FC treatment on stress granule formation by immunostaining of the cells with anti-G3BP antibody. […] The 5-FC-treated cells started to form stress granules only after 24 h of treatment with 1 mM 5-FC, a concentration four times higher than the maximal concentration of 5-FC used for Flura-tagging, or after 48 h of 5-FC treatment at lower concentrations (FIG. 2a).
Human embryonic kidney transformed with […] (293T) and human breast cancer MDA-MB-231 (MDA231) cells were cultured in DMEM High Glucose medium (Wheaton) supplemented with 10% Fetal Bovine Serum (Clontech, Catalog number 631106) supplemented with 2 mM L-Glutamine. All cell lines have been routinely tested for mycoplasma contamination. For the induction of CD or CD and UPRT, cells were treated with 1 μg/ml doxycycline for 24 h. For Fluorouracil tagging, cells were treated with 250 μM of 5-FC or 5-FU unless indicated. Where indicated, 125 μM thymine was added together with 5-FC. […]

Data set [1] relates to MDA231 cells expressing CD/UPRT in mouse lungs. Kind of data set: signal-to-noise ratio of Flura-tagging and TU-tagging in vivo, lung colonization xenograft, RT-PCR. The settings on record: 250 mg/kg, 12 h post injection. As for the experimental part: FIG. 3 a-g. Flura-tagging of mRNA in vivo. FIG. 3a—Schematic diagram of lung colonization xenograft assay used for evaluation of Flura-tagging/Flura-seq. Athymic mice were injected through the tail vein with 50,000 MDA231 cells expressing CD/UPRT and GFP-luciferase. Upon the development of detectable bioluminescent lung metastases (4 weeks), mice were treated with doxycycline to induce CD/UPRT expression and injected with 5-FC. Lungs were harvested, and Flura-tagged mRNAs were immunopurified. FIG. 3b—Comparison of signal-to-noise ratio of Flura-tagging and TU-tagging in vivo. Mice were injected with either 5-FC or TU, the Flura-tagged or TU-tagged mRNAs were purified 12 h post injection, and the relative fold enrichment of representative human housekeeping genes relative to representative murine housekeeping genes (mHPRT1, mLDH1, mPGK1 and mGAPDH), normalized to their corresponding unpurified inputs, were measured by RT-PCR (n=5, ±S.E.). FIG. 3c—Quantification of the number of human cells in the mouse lungs used for Flura-tagging. Half of the mouse lungs used for Flura-tagging in FIG. 3b was dissociated into single cells, and the number of RFP+ cells was quantified using flow cytometry. The total number of MDA231 cells per lung was estimated based on an assumption of 1.5×10^8 cells per mouse lung (20) (n=5). […] RNA reads were aligned to a hybrid genome containing the human and mouse genomes. […]

For the compound `O=c1[nH]cc(F)c(=O)[nH]1` [5-FU, 5-fluoro-uracil], the “immunostaining with anti-BrdU antibody” value with 293T cells is on record as “positive immunostaining”.
With `O=[As]O` [sodium arsenite], the “time to formation of distinct G3BP foci” value in the data set on MDA231 cells was at most 1 h.
As for `O=c1cc[nH]c(=S)[nH]1` [thiouracil], the “enrichment of human mRNAs compared to mouse mRNAs” value in data set [1] is “approximately 10 fold”.
